In patent publication US20120059034A1, “NOVEL CRYSTALLINE HYDRATE, AMORPHOUS AND POLYMORPHIC FORMS OF DIHYDRO-BENZOXAZOLE-6-YL-ACETAMIDE DERIVATIVE AND PROCESSES FOR THEIR PREPARATION” (priority 2009, published 2012):

Assays:
[1] = Storage stability of the amorphous form against crystallization; type: physicochemical; conditions: normal laboratory conditions, several months
Text: (§1) 1. There are no reflections on XRPD pattern of radiprodil amorphous form. 2. Characteristic IR absorption bands of radiprodil amorphous form are the followings: 3275, 1768, 1685, 1219 and 544±4 cm^−1. 3. Characteristic Raman absorption bands of radiprodil amorphous are the followings: 3071, 1687, 1640, 1414, 1280 and 852±4 cm^−1. […] One particular advantage of the discovered amorphous Form is that it is relatively stable.

[2] = Solubility and dissolution rate of solid forms; type: physicochemical
Protocol: (§2) 1. Characteristic reflections of radiprodil monohydrate are the followings: 4.9, 15.1, 18.1, 26.8 and 30.2±0.2° 2θ 2. Characteristic IR absorption bands of radiprodil monohydrate are the followings: 3644, 1836, 1809, 1789, 1645 and 919±4 cm^−1. 3. Characteristic Raman absorption bands of radiprodil monohydrate are the followings: 2887, 1642, 1484, 1295 and 726±4 cm^−1. […] While the dihydrate Form can be dehydrated relatively easily at elevated temperature, the monohydrate Form is sufficiently stable under such conditions. […] This relative stability of the monohydrate Form compared to the dihydrate Form is advantageous in formulation technological steps involving elevated temperatures.
as §1

[3] = Stress stability of the solid form (chemical impurities and physical form); type: physicochemical; conditions: stress conditions 25° C./75% RH; 50° C.; 50° C./oxygen; 50° C./75% RH; 50° C./90% RH; 75° C.; 75° C./oxygen, 10 days
Protocol: (§3) (IV) a DSC trace substantially in accordance with FIG. 5; • Characteristic diffraction and spectroscopic data of radiprodil anhydrate Form A are as follows: 1. Characteristic XRPD reflections of radiprodil anhydrate Form A are the following: 7.8, 22.0, 23.7, 27.0 and 27.6±0.2° 2 θ 2. Characteristic IR absorption bands of radiprodil anhydrate Form A are the following: 3295, 2863, 1852, 1768, 1058 and 635±4 cm^−1. 3. Characteristic Raman absorption bands of radiprodil anhydrate Form A are the following: 3106, 1680, 1641, 1470, 1274 and 507±4 cm^−1. […] All the other discovered solid forms can be converted to anhydrate Form A in suspension. This conversion takes place in absolute ethanol or in ethanol:water mixtures within a few hours. This relative stability advantage of anhydrous Form A of radiprodil can be favorably utilized in the development of active ingredient as well as dosage forms that are sufficiently stable both chemically and physically during extended shelf life. […] Due to its physical stability and non-hygroscopic character this polymorphic form is particularly advantageous in dosage formulation processes where the active ingredient is exposed to water during the process, such as wet granulation.

[4] = Hygroscopicity, weight gain at elevated humidity; type: physicochemical; conditions: 50° C./90% RH, 10 days
Protocol: as §3

[5] = Pharmacokinetic profile in dogs (plasma concentrations by validated HPLC(UV) method); type: in vivo; conditions: 5 mg/kg dose adjusted to the anhydrous active substance, plasma samples up to 24 hours post dose
Protocol: Another essential value of the dihydrate Form is the observed better pharmacokinetic profile in dogs compared to the anhydrate Form A. Both forms in 5 mg/kg dose adjusted to the anhydrous active substance were administered to dogs and relevant pharmacokinetic parameters (AUC, Cmax) were calculated from the plasma profiles of the individual animals. The animals were […] seventeen hours before and six hours after drug administration. Plasma concentrations were measured in the trial samples taken up to 24 hours post dose by a validated HPLC(UV) method.

[6] = Relative thermodynamic stability, conversion of solid forms in suspension; type: physicochemical; conditions: room temperature
Protocol: as §3

[7] = Thermal stability, loss of water of hydration at 50° C. in N2 atmosphere; type: physicochemical
Protocol: as §2

O=C(Nc1ccc2[nH]c(=O)oc2c1)C(=O)N1CCC(Cc2ccc(F)cc2)CC1 [amorphous Form, 2-[4-(4-Fluorobenzyl)-piperidin-1-yl]-2-oxo-N-(2-oxo-2,3-dihydro-benzoxazol-6-yl)-acetamide amorphous form]
crystallization on storage [1]: without crystallization
dissolution rate among the solid forms [2]: largest
solubility among the solid forms [2]: largest

O=C(Nc1ccc2[nH]c(=O)oc2c1)C(=O)N1CCC(Cc2ccc(F)cc2)CC1 [anhydrate Form A, 2-[4-(4-Fluorobenzyl)-piperidin-1-yl]-2-oxo-N-(2-oxo-2,3-dihydro-benzoxazol-6-yl)-acetamide anhydrate Form A]
change of sum of chemical impurities and of physical form compared to the starting material [3]: neither the sum of chemical impurities nor the physical form has changed
weight gain (hygroscopicity) [4]: did not show measurable weight gain
AUC24 [5]: 1554 ng·h/mL
Cmax [5]: 125 ng/mL
thermodynamic stability among the discovered forms [6]: thermodynamically most stable form

O=C(Nc1ccc2[nH]c(=O)oc2c1)C(=O)N1CCC(Cc2ccc(F)cc2)CC1 [dihydrate Form, 2-[4-(4-Fluorobenzyl)-piperidin-1-yl]-2-oxo-N-(2-oxo-2,3-dihydro-benzoxazol-6-yl)-acetamide dihydrate]
AUC24 ([5]; dihydrate): 4491 ng·h/mL
Cmax ([5]; dihydrate): 395 ng/mL
time to loss of water of hydration [7]: 2 h

O=C(Nc1ccc2[nH]c(=O)oc2c1)C(=O)N1CCC(Cc2ccc(F)cc2)CC1 [monohydrate Form, 2-[4-(4-Fluorobenzyl)-piperidin-1-yl]-2-oxo-N-(2-oxo-2,3-dihydro-benzoxazol-6-yl)-acetamide monohydrate]
solubility compared to anhydrate Form A [2]: greater solubility
weight loss (water of hydration) ([7]; same conditions as dihydrate Form (2 hours)): does not show detectable weight loss
